Assay type in all cases: cell-based
Assay [1] deals with T1, Cav1.2 (Homo sapiens, UniProt Q13936).
T1 construct: gene CACNA1C; human Cav1.2 α1 stably expressed in tsA-201 cells; with auxiliary β3 (rat) and α2δ1 (rabbit) subunits
As to the kind of experiment: whole-cell patch-clamp concentration-response, […] Ca2+, HP -89 mV, […] Hz. Background: The patch-clamp technique gives a direct electrical read-out from membranes.

For assay [2], the target named is T2, Cav1.3 (Homo sapiens, UniProt Q01668).
T2 construct: gene CACNA1D; human Cav1.3S (C-terminal short splice variant, exon 8b) α1 stably expressed in tsA-201 cells; with auxiliary β3 (rat) and α2δ1 (rabbit) subunits
T2 sequence (Q01668 whole entry, canonical isoform): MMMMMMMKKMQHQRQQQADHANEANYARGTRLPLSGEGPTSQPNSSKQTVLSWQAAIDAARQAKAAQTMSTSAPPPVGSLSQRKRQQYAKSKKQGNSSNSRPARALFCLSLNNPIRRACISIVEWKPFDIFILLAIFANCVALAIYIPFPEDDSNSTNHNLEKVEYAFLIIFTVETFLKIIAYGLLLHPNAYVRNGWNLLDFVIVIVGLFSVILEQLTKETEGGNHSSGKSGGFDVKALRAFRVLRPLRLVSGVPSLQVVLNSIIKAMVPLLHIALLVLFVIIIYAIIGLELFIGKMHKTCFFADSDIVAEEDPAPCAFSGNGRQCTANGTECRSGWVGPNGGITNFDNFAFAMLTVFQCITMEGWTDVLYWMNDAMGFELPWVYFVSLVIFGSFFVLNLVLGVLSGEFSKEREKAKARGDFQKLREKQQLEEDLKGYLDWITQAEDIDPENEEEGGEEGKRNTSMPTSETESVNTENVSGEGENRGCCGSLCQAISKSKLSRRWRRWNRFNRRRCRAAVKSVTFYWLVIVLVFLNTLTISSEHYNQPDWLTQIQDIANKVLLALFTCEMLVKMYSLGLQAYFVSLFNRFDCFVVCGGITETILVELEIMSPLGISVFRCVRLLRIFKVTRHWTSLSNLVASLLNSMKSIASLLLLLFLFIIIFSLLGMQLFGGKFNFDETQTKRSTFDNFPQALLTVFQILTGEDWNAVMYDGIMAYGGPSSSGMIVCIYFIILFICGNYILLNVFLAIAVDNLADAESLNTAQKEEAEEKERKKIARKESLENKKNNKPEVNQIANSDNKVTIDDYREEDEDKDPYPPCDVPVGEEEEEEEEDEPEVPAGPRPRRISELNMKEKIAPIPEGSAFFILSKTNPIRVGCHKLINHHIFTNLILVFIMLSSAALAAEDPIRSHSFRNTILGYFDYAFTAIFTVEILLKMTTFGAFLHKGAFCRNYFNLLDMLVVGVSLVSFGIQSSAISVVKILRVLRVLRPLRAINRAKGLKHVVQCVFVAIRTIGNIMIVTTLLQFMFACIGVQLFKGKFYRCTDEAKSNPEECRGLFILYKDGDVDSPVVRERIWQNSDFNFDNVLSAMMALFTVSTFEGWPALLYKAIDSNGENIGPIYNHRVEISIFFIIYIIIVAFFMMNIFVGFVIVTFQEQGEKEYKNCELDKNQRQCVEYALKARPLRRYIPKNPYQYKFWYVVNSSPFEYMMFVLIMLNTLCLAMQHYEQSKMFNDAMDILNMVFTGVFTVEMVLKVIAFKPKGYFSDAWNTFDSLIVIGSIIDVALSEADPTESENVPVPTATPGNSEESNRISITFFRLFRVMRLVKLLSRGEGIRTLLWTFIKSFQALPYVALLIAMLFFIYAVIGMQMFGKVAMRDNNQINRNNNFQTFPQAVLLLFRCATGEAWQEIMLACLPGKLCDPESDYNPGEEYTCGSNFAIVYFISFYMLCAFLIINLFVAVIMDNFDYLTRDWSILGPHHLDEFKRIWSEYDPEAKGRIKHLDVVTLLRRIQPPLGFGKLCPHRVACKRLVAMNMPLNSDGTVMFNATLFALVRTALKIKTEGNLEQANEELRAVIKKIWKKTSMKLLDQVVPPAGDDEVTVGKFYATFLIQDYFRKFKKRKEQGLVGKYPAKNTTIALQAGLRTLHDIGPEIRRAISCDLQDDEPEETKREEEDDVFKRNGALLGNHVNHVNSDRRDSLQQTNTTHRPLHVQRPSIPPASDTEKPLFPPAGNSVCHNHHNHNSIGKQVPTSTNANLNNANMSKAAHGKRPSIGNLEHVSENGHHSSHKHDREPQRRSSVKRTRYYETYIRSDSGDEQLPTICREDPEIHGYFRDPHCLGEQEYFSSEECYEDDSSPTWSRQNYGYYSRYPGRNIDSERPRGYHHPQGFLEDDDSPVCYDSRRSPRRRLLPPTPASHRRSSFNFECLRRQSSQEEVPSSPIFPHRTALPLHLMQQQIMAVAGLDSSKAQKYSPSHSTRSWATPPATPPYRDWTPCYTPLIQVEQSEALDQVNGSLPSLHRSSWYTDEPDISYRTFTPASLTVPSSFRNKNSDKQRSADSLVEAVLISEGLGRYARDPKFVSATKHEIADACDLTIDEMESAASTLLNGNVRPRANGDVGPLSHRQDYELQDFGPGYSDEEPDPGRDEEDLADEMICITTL
T2 sequence (P54287 whole entry partner, canonical isoform): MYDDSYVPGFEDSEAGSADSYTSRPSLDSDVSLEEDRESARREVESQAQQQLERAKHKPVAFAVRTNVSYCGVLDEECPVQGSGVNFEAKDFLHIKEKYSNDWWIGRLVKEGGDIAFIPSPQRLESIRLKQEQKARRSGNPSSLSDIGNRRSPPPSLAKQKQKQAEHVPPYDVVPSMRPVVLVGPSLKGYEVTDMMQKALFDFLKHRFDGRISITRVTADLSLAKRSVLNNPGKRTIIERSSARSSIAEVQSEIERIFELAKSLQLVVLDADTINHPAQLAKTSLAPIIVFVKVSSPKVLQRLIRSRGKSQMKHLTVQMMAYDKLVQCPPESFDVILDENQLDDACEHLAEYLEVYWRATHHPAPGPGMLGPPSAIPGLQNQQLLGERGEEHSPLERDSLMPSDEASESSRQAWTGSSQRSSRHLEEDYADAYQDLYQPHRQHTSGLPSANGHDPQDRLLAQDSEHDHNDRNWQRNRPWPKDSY
T2 sequence (P13806 27-960 partner): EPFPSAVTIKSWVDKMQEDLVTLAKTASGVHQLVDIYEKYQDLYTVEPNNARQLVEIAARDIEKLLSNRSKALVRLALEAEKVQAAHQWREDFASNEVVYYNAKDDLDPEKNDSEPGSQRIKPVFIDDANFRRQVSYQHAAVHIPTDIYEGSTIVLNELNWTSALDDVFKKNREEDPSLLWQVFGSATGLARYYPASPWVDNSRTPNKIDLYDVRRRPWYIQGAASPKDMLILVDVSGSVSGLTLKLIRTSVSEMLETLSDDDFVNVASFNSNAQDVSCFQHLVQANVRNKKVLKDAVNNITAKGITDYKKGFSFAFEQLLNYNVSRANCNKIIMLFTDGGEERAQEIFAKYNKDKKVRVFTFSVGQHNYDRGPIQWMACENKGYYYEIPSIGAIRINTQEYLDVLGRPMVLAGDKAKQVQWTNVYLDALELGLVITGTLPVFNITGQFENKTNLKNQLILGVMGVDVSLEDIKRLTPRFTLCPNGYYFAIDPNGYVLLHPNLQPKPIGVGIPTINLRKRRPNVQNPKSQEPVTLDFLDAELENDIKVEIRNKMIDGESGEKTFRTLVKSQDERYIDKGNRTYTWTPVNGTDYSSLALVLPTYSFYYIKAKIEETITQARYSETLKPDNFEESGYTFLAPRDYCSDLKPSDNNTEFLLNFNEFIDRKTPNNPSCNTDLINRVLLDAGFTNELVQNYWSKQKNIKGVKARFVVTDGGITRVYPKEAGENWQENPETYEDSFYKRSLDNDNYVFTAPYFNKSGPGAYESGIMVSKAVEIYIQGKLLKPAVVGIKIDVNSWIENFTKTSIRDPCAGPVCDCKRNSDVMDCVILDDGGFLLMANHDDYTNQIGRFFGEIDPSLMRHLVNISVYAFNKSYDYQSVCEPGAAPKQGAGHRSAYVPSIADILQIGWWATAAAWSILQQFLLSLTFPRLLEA
T2 sequence (P13806 961-1106 partner): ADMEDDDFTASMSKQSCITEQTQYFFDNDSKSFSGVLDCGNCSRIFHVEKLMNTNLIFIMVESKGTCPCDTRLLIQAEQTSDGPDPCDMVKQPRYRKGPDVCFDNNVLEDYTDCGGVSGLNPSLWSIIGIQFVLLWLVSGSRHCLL
The description is as above.

Assay [3] deals with T3, Cav2.3 (Homo sapiens, UniProt Q15878).
T3 construct: gene CACNA1E; Cav2.3e α1 transiently expressed in tsA-201 cells; with auxiliary β3 and α2δ1 subunits
As to the kind of experiment: whole-cell patch-clamp, […], […] Ca2+, HP -89 mV, […] Hz. The conditions noted are these: read-out: % remaining ICa / 10 μM.

For the compound `C=C[C@](C)(O)CC[C@@H]1[C@@]2(C)CCCC(C)(C)[C@@H]2CC[C@@]1(C)O` [sclareol], the figures for the IC50 in assay [1] and in assay [2] were 12.5 µM and 16.3 µM, respectively. In addition, the remaining activity at 10 µM in assay [3] came to 36.7 ± 11.2%.

Compound `COC(=O)C1=C(C)NC(C)=C(C(=O)OC(C)C)C1c1cccc2nonc12` (stereo not shown) [isradipine] returned an IC50 in assay [2] of 0.134 µM.

One may read the IC50 as the point on the concentration scale where inhibition reaches its midpoint. Lower therefore signals greater potency.

The values above are taken from PMC12445503 (Channels, 2025).
